Test results reported in ChEMBL document CHEMBL1201861, “Genomics of Drug Sensitity in Cancer screening data, Wellcome Trust Sanger Institute”.

Columns and labels:
Assay in all cases: cells
SW684 = type: functional, cell-based, Homo sapiens; conditions: Homo sapiens, SW684; read-out: IC50;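 further: growth inhibition of human SW684 cells, measured by a cell viability assay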
Description: SANGER: Inhibition of human SW684 cell growth in a cell viability assay.

SH-4 = type: functional, cell-based; conditions: Homo sapiens;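 further: growth inhibition of SH-4 cells, read out with a cell viability assay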
Description: SANGER: Inhibition of human SH-4 cell growth in a cell viability assay.

L-363 = type: functional, cell-based, Homo sapiens; conditions: Homo sapiens, L-363
Description: SANGER: Inhibition of human L-363 cell growth in a cell viability assay.

MZ7-mel = type: functional, cell-based, Homo sapiens; conditions: Homo sapiens, MZ7-mel;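 further: growth inhibition of human MZ7-mel cells, measured by a cell viability assay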
Description: SANGER: Inhibition of human MZ7-mel cell growth in a cell viability assay.

KM12 = type: functional, cell-based, Homo sapiens; conditions: Homo sapiens, KM12;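 further: KM12 cell growth inhibition, read out with a cell viability assay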
Description: SANGER: Inhibition of human KM12 cell growth in a cell viability assay.

TGBC1TKB = type: functional, cell-based, Homo sapiens; conditions: Homo sapiens, TGBC1TKB;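 further: growth inhibition of TGBC1TKB cells, read out by a cell viability assay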
Description: SANGER: Inhibition of human TGBC1TKB cell growth in a cell viability assay.

L-428 = type: functional, cell-based, Homo sapiens; conditions: Homo sapiens, L-428
Description: SANGER: Inhibition of human L-428 cell growth in a cell viability assay.

HAL-01 = type: functional, cell-based, Homo sapiens; conditions: Homo sapiens, HAL-01;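 further: growth inhibition of human HAL-01 cells, read out with a cell viability assay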
Description: SANGER: Inhibition of human HAL-01 cell growth in a cell viability assay.

SCC-15 = type: functional, cell-based, Homo sapiens; conditions: Homo sapiens, SCC-15;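 further: growth inhibition of SCC-15 cells, read out with a cell viability assay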
Description: SANGER: Inhibition of human SCC-15 cell growth in a cell viability assay.

TK-10 = type: functional, cell-based, Homo sapiens; conditions: Homo sapiens, TK-10;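 further: growth inhibition of TK-10 cells, read out in a cell viability assay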
Description: SANGER: Inhibition of human TK10 cell growth in a cell viability assay.

C2BBe1 = type: functional, cell-based, Homo sapiens; conditions: Homo sapiens, C2BBe1;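 further: growth inhibition of C2BBe1 cells, read out through a viability assay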
Description: SANGER: Inhibition of human C2BBe1 cell growth in a cell viability assay.

D-263MG = type: functional, cell-based, Homo sapiens; conditions: Homo sapiens, D-263MG
Description: SANGER: Inhibition of human D-263MG cell growth in a cell viability assay.

A704 = type: functional, cell-based; conditions: Homo sapiens;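 further: growth inhibition of human A704 cells, read out with a cell viability assay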
Description: SANGER: Inhibition of human A704 cell growth in a cell viability assay.

no-10 = type: functional, cell-based, Homo sapiens; conditions: Homo sapiens;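 further: growth inhibition of no-10 cells, read out with a cell viability assay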
Description: SANGER: Inhibition of human no-10 cell growth in a cell viability assay.

MZ2-MEL = type: functional, cell-based, Homo sapiens; conditions: Homo sapiens, MZ2-MEL;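 further: growth inhibition of MZ2-MEL cells read out with a cell viability assay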
Description: SANGER: Inhibition of human MZ2-MEL cell growth in a cell viability assay.

OVCAR-4 = type: functional, cell-based, Homo sapiens; conditions: Homo sapiens, OVCAR-4;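 further: growth inhibition of human OVCAR-4 cells, measured with a cell viability assay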
Description: SANGER: Inhibition of human OVCAR-4 cell growth in a cell viability assay.

NCI-H82 = type: functional, cell-based, Homo sapiens; conditions: Homo sapiens, NCI-H82;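 further: growth inhibition of NCI-H82 cells, measured with a cell viability readout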
Description: SANGER: Inhibition of human NCI-H82 cell growth in a cell viability assay.

EW-1 = type: functional, cell-based, Homo sapiens; conditions: Homo sapiens, EW-1
Description: SANGER: Inhibition of human EW-1 cell growth in a cell viability assay.

KS-1 = type: functional, cell-based; conditions: Homo sapiens;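 further: growth inhibition of KS-1 cells, read out with a cell viability assay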
Description: SANGER: Inhibition of human KS-1 cell growth in a cell viability assay.

SK-NEP-1 = type: functional, cell-based, Homo sapiens; conditions: Homo sapiens, SK-NEP-1;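 further: growth inhibition of human SK-NEP-1 cells, read out by a cell viability assay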
Description: SANGER: Inhibition of human SK-NEP-1 cell growth in a cell viability assay.

C8166 = type: functional, cell-based, Homo sapiens; conditions: Homo sapiens, C8166;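 further: growth inhibition of human C8166 cells measured by a cell viability assay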
Description: SANGER: Inhibition of human C8166 cell growth in a cell viability assay.

GCIY = type: functional, cell-based, Homo sapiens; conditions: Homo sapiens, GCIY;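 further: growth inhibition of the human GCIY cell line, read out by a cell viability assay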
Description: SANGER: Inhibition of human GCIY cell growth in a cell viability assay.

ETK-1 = type: functional, cell-based, Homo sapiens; conditions: Homo sapiens, ETK-1;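 further: growth inhibition of human ETK-1 cells, read out with a cell viability assay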
Description: SANGER: Inhibition of human ETK-1 cell growth in a cell viability assay.

IST-MES1 = type: functional, cell-based, Homo sapiens; conditions: Homo sapiens, IST-MES1;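 further: growth inhibition of IST-MES1 cells, measured with a cell viability assay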
Description: SANGER: Inhibition of human IST-MES1 cell growth in a cell viability assay.

Calu-6 = type: functional, cell-based, Homo sapiens; conditions: Homo sapiens, Calu-6;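 further: growth of human Calu-6 cells, read out by a cell viability assay, IC50 marking inhibition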
Description: SANGER: Inhibition of human Calu-6 cell growth in a cell viability assay.

QIMR-WIL = type: functional, cell-based, Homo sapiens; conditions: Homo sapiens, QIMR-WIL;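 further: growth inhibition of QIMR-WIL cells, read out with a cell viability assay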
Description: SANGER: Inhibition of human QIMR-WIL cell growth in a cell viability assay.

KALS-1 = type: functional, cell-based, Homo sapiens; conditions: Homo sapiens, KALS-1; read-out: IC50;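 further: growth inhibition of KALS-1 cells, determined with a cell viability assay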
Description: SANGER: Inhibition of human KALS-1 cell growth in a cell viability assay.

LS-513 = type: functional, cell-based, Homo sapiens; conditions: Homo sapiens, LS-513
Description: SANGER: Inhibition of human LS-513 cell growth in a cell viability assay.

A101D = type: functional, cell-based, Homo sapiens; conditions: Homo sapiens, A101D;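 further: growth inhibition of the cell line, measured with a viability assay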
Description: SANGER: Inhibition of human A101D cell growth in a cell viability assay.

LB831-BLC = type: functional, cell-based, Homo sapiens; conditions: Homo sapiens, LB831-BLC;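 further: growth inhibition of LB831-BLC cells, read out with a cell viability assay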
Description: SANGER: Inhibition of human LB831-BLC cell growth in a cell viability assay.

Mo = type: functional, cell-based, Homo sapiens; conditions: Homo sapiens, Mo
Description: SANGER: Inhibition of human Mo-T cell growth in a cell viability assay.

ES8 = type: functional, cell-based, Homo sapiens; conditions: Homo sapiens, ES8;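 further: growth inhibition of human ES8 cells, read out with a cell viability assay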
Description: SANGER: Inhibition of human ES8 cell growth in a cell viability assay.

COLO-829 = type: functional, cell-based, Homo sapiens; conditions: Homo sapiens, COLO-829
Description: SANGER: Inhibition of human COLO-829 cell growth in a cell viability assay.

Ramos-2G6-4C10 = type: functional, cell-based, Homo sapiens; conditions: Homo sapiens, Ramos-2G6-4C10;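 further: growth inhibition of the cell line, measured by a cell viability read-out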
Description: SANGER: Inhibition of human Ramos-2G6-4C10 cell growth in a cell viability assay.

LOX IMVI = type: functional, cell-based, Homo sapiens; conditions: Homo sapiens, LOX IMVI
Description: SANGER: Inhibition of human LOXIMVI cell growth in a cell viability assay.

DMS-114 = type: functional, cell-based, Homo sapiens; conditions: Homo sapiens, DMS-114
TE-5 = type: functional, cell-based, Homo sapiens; conditions: Homo sapiens, TE-5;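 further: inhibition of cell growth, read out by a cell viability assay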
Description: SANGER: Inhibition of human TE-5 cell growth in a cell viability assay.

ONS-76 = type: functional, cell-based, Homo sapiens; conditions: Homo sapiens, ONS-76;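 further: growth inhibition of human ONS-76 cells, read out with a cell viability assay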
Description: SANGER: Inhibition of human ONS-76 cell growth in a cell viability assay.

BB65-RCC = type: functional, cell-based, Homo sapiens; conditions: Homo sapiens, BB65-RCC;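 further: growth inhibition of the cell line, measured with a cell viability assay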
Description: SANGER: Inhibition of human BB65-RCC cell growth in a cell viability assay.

IST-SL1 = type: functional, cell-based, Homo sapiens; conditions: Homo sapiens, IST-SL1;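 further: growth inhibition of human IST-SL1 cells, read out with a cell viability assay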
Description: SANGER: Inhibition of human IST-SL1 cell growth in a cell viability assay.

RS4-11 = type: functional, cell-based, Homo sapiens; conditions: Homo sapiens, RS4-11;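 further: growth inhibition of RS4-11 cells, read out by a cell viability assay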
Description: SANGER: Inhibition of human RS4-11 cell growth in a cell viability assay.

COLO-684 = type: functional, cell-based, Homo sapiens; conditions: Homo sapiens, COLO-684
Description: SANGER: Inhibition of human COLO-684 cell growth in a cell viability assay.

DJM-1 = type: functional, cell-based, Homo sapiens; conditions: Homo sapiens, DJM-1;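 further: growth inhibition of human DJM-1 cells, read out by a cell viability assay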
Description: SANGER: Inhibition of human DJM-1 cell growth in a cell viability assay.

KNS-81-FD = type: functional, cell-based, Homo sapiens; conditions: Homo sapiens, KNS-81-FD;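 further: growth inhibition of KNS-81-FD cells, read out with a cell viability assay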
Description: SANGER: Inhibition of human KNS-81-FD cell growth in a cell viability assay.

ES6 = type: functional, cell-based; conditions: Homo sapiens;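 further: growth inhibition of human ES6 cells, read out with a cell viability assay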
Description: SANGER: Inhibition of human ES6 cell growth in a cell viability assay.

DEL = type: functional, cell-based, Homo sapiens; conditions: Homo sapiens, DEL;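 further: growth inhibition of the human DEL cell line, read out with a cell viability assay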
Description: SANGER: Inhibition of human DEL cell growth in a cell viability assay.

MEG-01 = type: functional, cell-based, Homo sapiens; conditions: Homo sapiens, MEG-01;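 further: growth inhibition of MEG-01 cells, read out by a cell viability assay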
Description: SANGER: Inhibition of human MEG-01 cell growth in a cell viability assay.

MHH-PREB-1 = type: functional, cell-based, Homo sapiens; conditions: Homo sapiens, MHH-PREB-1;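 further: cell viability assay measuring inhibition of proliferation of human MHH-PREB-1 cells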
Description: SANGER: Inhibition of human MHH-PREB-1 cell growth in a cell viability assay.

TE-6 = type: functional, cell-based, Homo sapiens; conditions: Homo sapiens, TE-6;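 further: growth inhibition of TE-6 cells, read out with a cell viability assay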
Description: SANGER: Inhibition of human TE-6 cell growth in a cell viability assay.

EW-18 = type: functional, cell-based, Homo sapiens; conditions: Homo sapiens, EW-18; read-out: IC50;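 further: growth inhibition of EW-18 cells, read out by a cell viability assay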
Description: SANGER: Inhibition of human EW-18 cell growth in a cell viability assay.

With `CS(=O)(=O)N1CCN(Cc2cc3nc(-c4cccc5[nH]ncc45)nc(N4CCOCC4)c3s2)CC1` [PICTILISIB] the IC50 (SW684) was > 4 µM, the IC50 (SH-4) was > 4 µM and the IC50 (L-363) was 0.798 µM. For the same compound, the IC50 (MZ7-mel) was > 4 µM, the IC50 (KM12) was > 4 µM and the IC50 (TGBC1TKB) was > 4 µM. For the same compound, the IC50 (L-428) was > 4 µM, the IC50 (HAL-01) was 0.207 µM and the IC50 (SCC-15) was > 4 µM. The IC50 (TK-10) was 1.67 µM, the IC50 (C2BBe1) was > 4 µM and the IC50 (D-263MG) was 0.718 µM. For the same compound, the IC50 (A704) was 1.51 µM, the IC50 (no-10) was > 4 µM and the IC50 (MZ2-MEL) was 3.66 µM. The IC50 (OVCAR-4) was > 4 µM, the IC50 (NCI-H82) was > 4 µM and the IC50 (EW-1) was > 4 µM. The IC50 (KS-1) was 2.11 µM, the IC50 (SK-NEP-1) was 0.726 µM and the IC50 (C8166) was > 4 µM. For the same compound, the IC50 (GCIY) was 0.434 µM, the IC50 (ETK-1) was > 4 µM and the IC50 (IST-MES1) was > 4 µM. For the same compound, the IC50 (Calu-6) was > 4 µM, the IC50 (QIMR-WIL) was 0.865 µM and the IC50 (KALS-1) was > 4 µM. The IC50 (LS-513) was > 4 µM, the IC50 (A101D) was 0.99 µM and the IC50 (LB831-BLC) was > 4 µM. For the same compound, the IC50 (Mo) was > 4 µM, the IC50 (ES8) was 0.811 µM and the IC50 (COLO-829) was > 4 µM. The IC50 (Ramos-2G6-4C10) was 1.61 µM, the IC50 (LOX IMVI) was 2.04 µM and the IC50 (DMS-114) was > 4 µM. For the same compound, the IC50 (TE-5) was > 4 µM, the IC50 (ONS-76) was > 4 µM and the IC50 (BB65-RCC) was > 4 µM. For the same compound, the IC50 (IST-SL1) was > 4 µM, the IC50 (RS4-11) was 0.262 µM and the IC50 (COLO-684) was 0.523 µM. The IC50 (DJM-1) was > 4 µM, the IC50 (KNS-81-FD) was > 4 µM and the IC50 (ES6) was > 4 µM. The IC50 (DEL) was > 4 µM, the IC50 (MEG-01) was > 4 µM and the IC50 (MHH-PREB-1) was 0.114 µM. The IC50 (TE-6) was > 4 µM.
In the case of `Cc1ccc(C(=O)Nc2ccc(CN3CCN(C)CC3)c(C(F)(F)F)c2)cc1C#Cc1cnc2cccnn12` [PONATINIB], the IC50 (SW684) is reported as > 0.512 µM, the IC50 (L-363) is reported as > 0.512 µM and the IC50 (MZ7-mel) is reported as > 0.512 µM. The IC50 (KM12) was 0.0974 µM, the IC50 (TGBC1TKB) was > 0.512 µM and the IC50 (L-428) was > 0.512 µM. The IC50 (HAL-01) was > 0.512 µM, the IC50 (SCC-15) was > 0.512 µM and the IC50 (TK-10) was > 0.512 µM. For the same compound, the IC50 (C2BBe1) was > 0.512 µM, the IC50 (D-263MG) was > 0.512 µM and the IC50 (A704) was > 0.512 µM. The IC50 (no-10) was > 0.512 µM, the IC50 (MZ2-MEL) was > 0.512 µM and the IC50 (OVCAR-4) was 0.416 µM. The IC50 (NCI-H82) was > 0.512 µM, the IC50 (EW-1) was > 0.512 µM and the IC50 (KS-1) was > 0.512 µM. For the same compound, the IC50 (SK-NEP-1) was > 0.512 µM, the IC50 (C8166) was > 0.512 µM and the IC50 (GCIY) was > 0.512 µM. The IC50 (ETK-1) was > 0.512 µM, the IC50 (IST-MES1) was 0.268 µM and the IC50 (Calu-6) was > 0.512 µM. The IC50 (QIMR-WIL) was 0.334 µM, the IC50 (KALS-1) was > 0.512 µM and the IC50 (LS-513) was > 0.512 µM. For the same compound, the IC50 (A101D) was > 0.512 µM, the IC50 (LB831-BLC) was > 0.512 µM and the IC50 (Mo) was > 0.512 µM. The IC50 (ES8) was > 0.512 µM, the IC50 (COLO-829) was > 0.512 µM and the IC50 (Ramos-2G6-4C10) was > 0.512 µM. For the same compound, the IC50 (LOX IMVI) was > 0.512 µM, the IC50 (DMS-114) was > 0.512 µM and the IC50 (TE-5) was > 0.512 µM. The IC50 (ONS-76) was > 0.512 µM, the IC50 (BB65-RCC) was > 0.512 µM and the IC50 (IST-SL1) was > 0.512 µM. The IC50 (RS4-11) was > 0.512 µM, the IC50 (COLO-684) was > 0.512 µM and the IC50 (DJM-1) was > 0.512 µM. The IC50 (KNS-81-FD) was > 0.512 µM, the IC50 (ES6) was > 0.512 µM and the IC50 (DEL) was > 0.512 µM. For the same compound, the IC50 (MEG-01) was < 0.002 µM, the IC50 (MHH-PREB-1) was > 0.512 µM and the IC50 (EW-18) was > 0.512 µM. For the same compound, the IC50 (TE-6) was > 0.512 µM.
In the case of `CN(C)CCOc1ccc(-c2nc(-c3ccncc3)c(-c3ccc4c(c3)CC/C4=N\O)[nH]2)cc1` [SB590885], the IC50 (SW684) is reported as > 5 µM, the IC50 (SH-4) is reported as 0.812 µM and the IC50 (L-363) is reported as 4.69 µM. For the same compound, the IC50 (MZ7-mel) was > 5 µM, the IC50 (KM12) was > 5 µM and the IC50 (TGBC1TKB) was > 5 µM. For the same compound, the IC50 (L-428) was > 5 µM, the IC50 (HAL-01) was 2.93 µM and the IC50 (SCC-15) was > 5 µM. The IC50 (TK-10) was > 5 µM, the IC50 (C2BBe1) was 1.96 µM and the IC50 (D-263MG) was > 5 µM. For the same compound, the IC50 (A704) was > 5 µM, the IC50 (no-10) was > 5 µM and the IC50 (MZ2-MEL) was > 5 µM. The IC50 (OVCAR-4) was > 5 µM, the IC50 (NCI-H82) was > 5 µM and the IC50 (EW-1) was > 5 µM. For the same compound, the IC50 (KS-1) was > 5 µM, the IC50 (SK-NEP-1) was > 5 µM and the IC50 (C8166) was > 5 µM. For the same compound, the IC50 (GCIY) was > 5 µM, the IC50 (ETK-1) was > 5 µM and the IC50 (IST-MES1) was > 5 µM. For the same compound, the IC50 (Calu-6) was > 5 µM, the IC50 (QIMR-WIL) was > 5 µM and the IC50 (LS-513) was > 5 µM. For the same compound, the IC50 (A101D) was 0.5 µM, the IC50 (LB831-BLC) was > 5 µM and the IC50 (Mo) was > 5 µM. The IC50 (ES8) was > 5 µM, the IC50 (COLO-829) was 0.967 µM and the IC50 (Ramos-2G6-4C10) was > 5 µM. The IC50 (LOX IMVI) was 3.19 µM, the IC50 (DMS-114) was > 5 µM and the IC50 (TE-5) was > 5 µM. For the same compound, the IC50 (ONS-76) was > 5 µM, the IC50 (BB65-RCC) was > 5 µM and the IC50 (IST-SL1) was > 5 µM. The IC50 (RS4-11) was > 5 µM, the IC50 (COLO-684) was > 5 µM and the IC50 (DJM-1) was > 5 µM. The IC50 (KNS-81-FD) was > 5 µM, the IC50 (ES6) was > 5 µM and the IC50 (DEL) was > 5 µM. For the same compound, the IC50 (MEG-01) was > 5 µM, the IC50 (MHH-PREB-1) was > 5 µM and the IC50 (EW-18) was > 5 µM. The IC50 (TE-6) was > 5 µM.
